Data published in patent EP0114002B1, “Benzothiopyrano(4,3,2,-cd)indazoles, their pharmaceutical compositions and methods for their production” (WARNER-LAMBERT COMPANY, priority 1983, dated 1984).

Assays:
[1] = test system: Streptococcus faecalis 05045; test: in vitro antibacterial/antifungal (ABF) agar-disk diffusion test; format: cell-based; details: Enterococcus faecalis, AM-09 medium, 1 mg/ml, read-out: ABF Zone Diameter (cont. in mg/ml) S. Fae-calis
[2] = test system: Aerobacter aerogenes 0126; test: as above; format: cell-based; details: Klebsiella aerogenes, 0.1 mg/ml, read-out: ABF Zone Diameter (cont. in mg/ml) A. Aero-genes
[3] = test system: Penicillium avellaneum M2988; test: as above; format: cell-based; details: Hamigera avellanea, read-out: ABF Zone Diameter (cont. in mg/ml) P. Avell-aneum
Escherichia coli 04863 = test: as above; format: cell-based; details: 0.5 mg/ml, read-out: ABF Zone Diameter (cont. in mg/ml) E. Coli
Bacillus subtilis 04555 = test: as above; format: cell-based; details: read-out: ABF Zone Diameter (cont. in mg/ml) B. Sub-tilis
[4] = test system: lymphocytic leukemia P388; test: in vivo lymphocytic leukemia P388 test; set-up: species or system mice; details: Mus musculus, P388, ip, 120 h, read-out: P388 in vivo T/C × 100; for response vs control in vivo at 6.25 mg/kg: Dose 6.25 mg/kg intraperitoneally once daily for five days; for response vs control in vivo at 12.5 mg/kg: Dose 12.50 mg/kg intraperitoneally once daily for five days
How it was run: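 CD2F mice, 6-7 per group, inoculated IP with P388 leukemia ascitic cells, then dosed IP once daily for five consecutive days at various doses. Survival and weights tracked for 30 days; activity expressed as treated/control survival time ×100, with ≥125 as efficacy criterion. Deaths of all animals within four days flagged as toxic.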

L1210 cells = test: L1210 murine leukemia cell growth inhibition in vitro; format: cell-based; details: Mus musculus, 72 h, Table 1, three days incubation, 50% inhibition of growth, read-out: L1210 in vitro ID50
How it was run: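 Murine L1210 leukemia cells (3 x 10^4 cells/ml) in RPMI 1640 with 5% FBS were exposed to drug dilutions for 3 days at 37 °C and 5% CO2. Cells were then Coulter-counted, growth was expressed relative to solvent and medium controls, and ID50 was given in mol/L.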

HCT-8 cells = test: in vitro proliferating human colon adenocarcinoma (HCA) cell screen; format: cell-based; details: Table 1, 60 to 65 hours with compound, 50% inhibition of growth, read-out: HCA—3 in vitro ID50
How it was run: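 HCT-8 cells grown 48 h at 37 °C in RPMI 1640/10% FCS, then exposed to compound for a further 60–65 h. Nuclei counted by Coulter counter after lysis; percent growth per concentration gives ID50 as molar concentration causing 50% growth inhibition.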

Row | SMILES | zone of inhibition at 1000 µg/mL [1] [mm] | zone of inhibition at 100 µg/mL [2] [mm] | zone of inhibition at 3000 µg/mL ([3]; 3 mg/ml) [mm] | zone of inhibition at 500 µg/mL (Escherichia coli 04863) [mm] | zone of inhibition at 1000 µg/mL (Bacillus subtilis 04555; 1 mg/ml) [mm] | response vs control in vivo at 3.12 mg/kg ([4]; Dose 3.12 mg/kg intraperitoneally once daily for five days) [%] | response vs control in vivo at 6.25 mg/kg [4] [%] | response vs control in vivo at 12.5 mg/kg [4] [%] | IC50 (L1210 cells) [nM] | IC50 (HCT-8 cells) [nM] | zone of inhibition at 500 µg/mL ([3]; 0.5 mg/ml) [mm] | zone of inhibition at 500 µg/mL (Bacillus subtilis 04555; 0.5 mg/ml) [mm]
1 | NCCn1nc2c3c(c(N)ccc31)Sc1ccccc1-2 [CH2CH2NH2 / NH2, 5-amino-2H[1]benzothiopyrano[4,3,2]-cd]indazole-2-ethanamine] | 15 | 17 | 0 | 19 | 18 | 125 | 131 | 160 | 110 | 320 | – | –
2 | CN(C)CCn1nc2c3c(c(N)ccc31)Sc1ccccc1-2 [CH2CH2N(CH2)2 / NH2] | 20 | 14 | – | 16 | – | – | 126 | 160 | 80 | 280 | 17 | 15
